Converted amounts (≈) assume the structure as drawn.
What was measured:
Type in all cases: functional
Streptococcus pyogenes = test: Antibacterial activity against Streptococcus pyogenes DSM 11728 incubated for 24 hrs by disk diffusion method
Bacillus subtilis = test: Antibacterial activity against Bacillus subtilis DSM 1088 incubated for 24 hrs by disk diffusion method
Pseudomonas aeruginosa = test: Antibacterial activity against Pseudomonas aeruginosa DSM 22644 incubated for 24 hrs by disk diffusion method
Escherichia coli = test: Antibacterial activity against Escherichia coli DSM 682 incubated for 24 hrs by disk diffusion method
Staphylococcus aureus = test: Antibacterial activity against Staphylococcus aureus DSM 799 incubated for 24 hrs by disk diffusion method

Row | Compound | MIC (Streptococcus pyogenes; DSM 11728, 24 h) [µg/mL] | MIC (Bacillus subtilis; DSM 1088, 24 h) [µg/mL] | MIC (Pseudomonas aeruginosa; DSM 22644, 24 h) [µg/mL] | MIC (Escherichia coli; DSM 682, 24 h) [µg/mL] | MIC (Staphylococcus aureus; DSM 799, 24 h) [µg/mL] | MIC (Streptococcus pyogenes) [µg/mL] | MIC (Bacillus subtilis) [µg/mL] | MIC (Pseudomonas aeruginosa) [µg/mL] | MIC (Escherichia coli) [µg/mL] | MIC (Staphylococcus aureus) [µg/mL]
1 | CC(C)[C@@H](C)/C=C/[C@@H](C)[C@H]1CC[C@H]2/C(=C/C(=O)O[C@]3(C)CCC=CC3=O)C(=O)CC[C@]12C | > 10 | 5 (≈ 11.3 µM) | > 10 | > 10 | 1 (≈ 2.27 µM) |  |  |  |  | 
2 | GENTAMICIN |  |  |  |  |  | 10 | 1 | 1 | 1 | 1
3 | CC(C)=CC[C@H](O)[C@@H](C)[C@H]1CC[C@@]2(C)c3ccc4c(c3C[C@@H](O)[C@]12C)[C@@H](O)C[C@H](O)C4(C)C | 0.1 (≈ 0.219 µM) | 2 (≈ 4.38 µM) | 2 (≈ 4.38 µM) | 5 (≈ 10.9 µM) | 5 (≈ 10.9 µM) |  |  |  |  | 
4 | CC(C)[C@@H](C)/C=C/[C@@H](C)[C@H]1CC[C@@]2(O)C3=CC(=O)[C@@]4(O)C[C@@H](O)CC[C@]4(C)[C@@]3(O)CC[C@]12C | > 10 | > 10 | > 10 | > 10 | > 10 |  |  |  |  | 
5 | CC(C)[C@@H](C)/C=C/[C@@H](C)[C@H]1CCC2C3=CC(=O)O[C@@]3(O)CC[C@@]21C (stereo not given in full) [DEMETHYLINCISTEROL A3] | > 10 | > 10 | > 10 | > 10 | > 10 |  |  |  |  | 
6 | CN[C@@H]1[C@H](O[C@H]2[C@H](O[C@H]3[C@H](O)[C@@H](O)[C@H](N=C(N)N)[C@@H](O)[C@@H]3N=C(N)N)O[C@@H](C)[C@]2(O)C=O)O[C@@H](CO)[C@H](O)[C@H]1O [STREPTOMYCIN] | > 10 | 5 (≈ 8.6 µM) | 10 (≈ 17.2 µM) | 1 (≈ 1.72 µM) | 5 (≈ 8.6 µM) |  |  |  |  | 
7 | CC(C)[C@@H](C)/C=C/[C@@H](C)[C@H]1CC[C@H]2C3=CC(=O)[C@@]4(O)C[C@@H](O)CC[C@]4(C)[C@@]3(O)CC[C@]12C | > 10 | 5 (≈ 11.2 µM) | > 10 | > 10 | > 10 |  |  |  |  | 
8 | CC(C)[C@@H](C)/C=C/[C@@H](C)[C@H]1CC[C@H]2C3=C[C@H](O)[C@@]4(O)C[C@@H](O)CC[C@]4(C)C3=CC[C@]12C | > 10 | > 10 | > 10 | > 10 | > 10 |  |  |  |  | 
9 | CO[C@]12CC[C@]3(C)[C@@H]([C@H](C)/C=C/[C@H](C)C(C)C)CC[C@H]3C1=CC(=O)O2 | > 10 | > 10 | > 10 | > 10 | > 10 |  |  |  |  | 

Reference: ChEMBL document CHEMBL3593195, “Endophytic Diaporthe sp. LG23 Produces a Potent Antibacterial Tetracyclic Triterpenoid” (2015)
